Test results: ChEMBL document CHEMBL5331140, “Discovery of IACS-52825, a Potent and Selective DLK Inhibitor for Treatment of Chemotherapy-Induced Peripheral Neuropathy” (J Med Chem, 2023)
Values after ≈ are worked out from the molar mass of the structure shown.

What was measured:
[1] = Metabolic stability in dog hepatocytes assessed as intrinsic clearance at 2 uM measured for 120 mins by LC-MS analysis; format: ADME, cell-based, Canis lupus familiaris, Hepatocyte; conditions: read-out: CLH
Cytochrome P450 2D6 = Cytochrome P450 2D6 (Homo sapiens, UniProt P10635); assay: Inhibition of CYP2D6 in human liver microsomes using bufuralol as substrate incubated for 10 mins in presence of NADPH by LC-MS/MS analysis; format: ADME, Microsome
Cytochrome P450 2D6, sequence (P10635 whole entry): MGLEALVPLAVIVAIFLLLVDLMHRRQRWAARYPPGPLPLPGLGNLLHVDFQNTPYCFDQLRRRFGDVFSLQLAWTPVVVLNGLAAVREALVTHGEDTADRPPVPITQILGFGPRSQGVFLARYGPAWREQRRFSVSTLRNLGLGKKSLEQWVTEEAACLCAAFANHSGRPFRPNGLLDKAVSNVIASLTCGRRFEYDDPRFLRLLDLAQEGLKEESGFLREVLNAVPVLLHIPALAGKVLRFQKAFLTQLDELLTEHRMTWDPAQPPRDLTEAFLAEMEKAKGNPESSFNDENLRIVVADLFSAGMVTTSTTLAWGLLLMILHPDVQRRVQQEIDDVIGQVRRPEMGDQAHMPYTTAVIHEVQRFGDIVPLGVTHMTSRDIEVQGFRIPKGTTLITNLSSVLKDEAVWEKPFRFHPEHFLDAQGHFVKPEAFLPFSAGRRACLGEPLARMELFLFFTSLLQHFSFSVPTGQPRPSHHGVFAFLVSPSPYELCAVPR

[2] = Thermodynamic aqueous solubility of compound in phosphate buffer at pH 7 incubated for 1 hr under shaking condition by LC-MS/MS analysis; format: physicochemical; conditions: read-out: Therm_solubility
[3] = Permeability in wild type MDCK cells across basolateral to apical side at 5 uM incubated for 90 mins by LC-MS/MS analysis; format: ADME, cell-based, Canis lupus familiaris; conditions: dog, read-out: permeability
[4] = AUClast in Beagle dog at 1 mg/kg, po or 0.3 mg/kg, iv measured for 24 hrs by LC-MS/MS analysis; format: ADME, organism-based, Canis lupus familiaris; design: time 24 hrs, dose 1 mg/kg, route po; conditions: in vivo
[5] = Thermodynamic aqueous solubility of compound in FaSSGF at pH 1.6 incubated for 1 hr under shaking condition by LC-MS/MS analysis; format: physicochemical; conditions: read-out: Therm_solubility
[6] = Metabolic stability in monkey hepatocytes assessed as intrinsic clearance at 2 uM measured for 120 mins by LC-MS analysis; format: ADME, cell-based, Macaca mulatta, Hepatocyte; conditions: rhesus monkey, read-out: CLH
[7] = Oral bioavailability in Sprague-Dawley rat at 3 mg/kg measured for 24 hrs by LC-MS/MS analysis; format: ADME, organism-based; conditions: in vivo
[8] = AUClast in C57BL/6 mouse at 10 mg/kg administered via oral gavage and measured for 24 hrs by LC-MS/MS analysis; format: ADME, organism-based; design: time 24 hrs, dose 10 mg/kg, route po; conditions: in vivo
[9] = Plasma protein binding in mouse at 5 uM incubated for 5 hrs by rapid equilibrium dialysis method; format: ADME, cell-free; conditions: read-out: PPB (converted)
[10] = Half life in C57BL/6 mouse at 0.3 mg/kg, iv administered via tail vein and measured for 24 hrs by LC-MS/MS analysis; format: ADME, organism-based; conditions: in vivo
[11] = Cmax in C57BL/6 mouse at 10 mg/kg administered via oral gavage and measured for 24 hrs by LC-MS/MS analysis; format: ADME, organism-based; design: dose 10 mg/kg, time 24 hrs, route po; conditions: in vivo
[12] = Half life in Sprague-Dawley rat at 3 mg/kg, po or 1 mg/kg, iv measured for 24 hrs by LC-MS/MS analysis; format: ADME, organism-based; conditions: in vivo
Cytochrome P450 3A4 = Cytochrome P450 3A4 (Homo sapiens, UniProt P08684); assay: Inhibition of CYP3A4 in human liver microsomes using testosterone as substrate incubated for 5 mins in presence of NADPH by LC-MS/MS analysis; format: ADME, Microsome
Cytochrome P450 3A4, sequence (P08684 whole entry): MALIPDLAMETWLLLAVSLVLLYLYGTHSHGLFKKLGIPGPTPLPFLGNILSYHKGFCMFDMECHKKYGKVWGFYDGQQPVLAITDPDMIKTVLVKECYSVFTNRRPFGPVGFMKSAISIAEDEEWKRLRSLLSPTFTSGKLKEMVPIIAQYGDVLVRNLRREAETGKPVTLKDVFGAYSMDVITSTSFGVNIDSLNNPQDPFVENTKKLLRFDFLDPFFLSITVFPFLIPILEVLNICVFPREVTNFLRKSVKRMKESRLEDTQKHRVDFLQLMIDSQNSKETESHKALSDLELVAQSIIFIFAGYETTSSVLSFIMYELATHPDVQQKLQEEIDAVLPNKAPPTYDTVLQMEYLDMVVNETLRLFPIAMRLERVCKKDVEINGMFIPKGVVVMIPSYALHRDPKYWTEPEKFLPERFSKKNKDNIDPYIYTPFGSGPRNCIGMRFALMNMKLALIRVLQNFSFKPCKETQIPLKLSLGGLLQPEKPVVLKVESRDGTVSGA

[13] = Oral bioavailability in C57BL/6 mouse at 10 mg/kg administered via oral gavage and measured for 24 hrs by LC-MS/MS analysis; format: ADME, organism-based; conditions: C57BL/6, mouse, in vivo
[14] = Metabolic stability in rat hepatocytes assessed as intrinsic clearance at 2 uM measured for 120 mins by LC-MS analysis; format: ADME, cell-based, Hepatocyte; conditions: read-out: CLH
[15] = AUClast in Sprague-Dawley rat at 3 mg/kg, po or 1 mg/kg, iv measured for 24 hrs by LC-MS/MS analysis; format: ADME, organism-based; design: time 24 hrs, dose 3 mg/kg, route po; conditions: in vivo
[16] = Bioavailability in Beagle dog at 1 mg/kg, po or 0.3 mg/kg, iv measured for 24 hrs by LC-MS/MS analysis; format: ADME, organism-based, Canis lupus familiaris; conditions: in vivo
[17] = Thermodynamic aqueous solubility of compound in FeSSIF at pH 5 incubated for 1 hr under shaking condition by LC-MS/MS analysis; format: physicochemical; conditions: read-out: Therm_solubility
Cytochrome P450 2C19 = Cytochrome P450 2C19 (Homo sapiens, UniProt P33261); assay: Inhibition of CYP2C19 in human liver microsomes using S-mephenytoin as substrate incubated for 45 mins in presence of NADPH by LC-MS/MS analysis; format: ADME, Microsome
Cytochrome P450 2C19, sequence (P33261 whole entry): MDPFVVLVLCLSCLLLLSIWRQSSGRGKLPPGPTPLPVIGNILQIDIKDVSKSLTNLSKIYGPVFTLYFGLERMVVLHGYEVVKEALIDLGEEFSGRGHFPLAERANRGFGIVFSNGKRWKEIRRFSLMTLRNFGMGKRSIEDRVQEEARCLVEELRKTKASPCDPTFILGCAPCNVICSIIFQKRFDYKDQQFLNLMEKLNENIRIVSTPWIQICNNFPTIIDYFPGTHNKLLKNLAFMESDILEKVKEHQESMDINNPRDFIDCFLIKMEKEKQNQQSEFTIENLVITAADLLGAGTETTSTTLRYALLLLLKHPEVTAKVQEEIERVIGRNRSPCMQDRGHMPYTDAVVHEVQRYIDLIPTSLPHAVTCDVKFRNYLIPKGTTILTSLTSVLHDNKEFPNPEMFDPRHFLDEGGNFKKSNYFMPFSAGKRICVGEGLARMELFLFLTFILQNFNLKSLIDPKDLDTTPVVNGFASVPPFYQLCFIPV

[18] = Plasma protein binding in human at 5 uM incubated for 5 hrs by rapid equilibrium dialysis method; format: ADME, cell-free; conditions: read-out: PPB
[19] = Cmax in cynomolgus monkey at 1 mg/kg, po or 0.3 mg/kg, iv measured for 24 hrs by LC-MS/MS analysis; format: ADME, organism-based, Macaca fascicularis; design: dose 1 mg/kg, time 24 hrs, route po; conditions: in vivo
[20] = Volume of distribution at steady state in C57BL/6 mouse at 0.3 mg/kg, iv administered via tail vein and measured for 24 hrs by LC-MS/MS analysis; format: ADME, organism-based; conditions: in vivo, read-out: Vdss
[21] = Plasma protein binding in monkey at 5 uM incubated for 5 hrs by rapid equilibrium dialysis method; format: ADME, cell-free, Macaca mulatta; conditions: rhesus monkey, read-out: PPB (converted)
[22] = Metabolic stability in human hepatocytes assessed as intrinsic clearance at 2 uM measured for 120 mins by LC-MS analysis; format: ADME, cell-based, Hepatocyte; conditions: read-out: CLH
[23] = Ratio of unbound drug concentration in C57BL/6 mouse brain to plasma at 0.3 mg/kg, iv measured for 24 hrs by LC-MS/MS analysis; format: ADME, organism-based; conditions: brain and plasma, read-out: K(p,uu,brain)
[24] = Half life in cynomolgus monkey at 1 mg/kg, po or 0.3 mg/kg, iv measured for 24 hrs by LC-MS/MS analysis; format: ADME, organism-based, Macaca fascicularis; conditions: in vivo
[25] = Protein binding in mouse brain homogenate incubated for 5 hrs by UPLC-MS/MS analysis; format: ADME, tissue-based; conditions: read-out: PB (converted)

Work on `Nc1ncc(-c2cn(C34CC(F)(C3)C4)c([C@@H](O)C(F)(F)F)n2)cc1OC(F)(F)F` yielded a CLint scaled at 2 µM [1] of 9.2 mL/min/kg, an IC50 (Cytochrome P450 2D6) greater than 10 µM and a solubility thermodynamic at 1 h [2] of 33 µM (≈ 14.1 µg/mL). It also gave a Papp B→A at 1.5 h, 5 µM [3] of 31 ×10⁻⁶ cm/s, an AUC(0-t) at 24 h [4] of 15.3 µM·h and a solubility thermodynamic at 1 h [5] of 20600 µM (≈ 8790 µg/mL). It also gave a CLint scaled at 2 µM [6] of 23 mL/min/kg, a bioavailability [7] of 95% and an AUClast [8] of 111 µM·h. The fraction unbound at 5 h, 5 µM [9] was 0.075, the half-life [10] was 13 h and the Cmax [11] was 6.4 µM. The half-life [12] was 12 h, the IC50 (Cytochrome P450 3A4) was greater than 10 µM and the bioavailability [13] was greater than 100%. For the same compound, the CLint scaled at 2 µM [14] was 4.4 mL/min/kg, the AUC(0-t) at 24 h [15] was 16.8 µM·h and the bioavailability [16] was greater than 100%. The solubility thermodynamic at 1 h [17] was 152 µM (≈ 64.8 µg/mL), the IC50 (Cytochrome P450 2C19) was greater than 10 µM and the fraction unbound at 5 h, 5 µM [18] was 0.091. For the same compound, the Cmax [19] was 0.35 µM, the Vd [20] was 4.5 L/kg and the fraction unbound at 5 h, 5 µM [21] was 0.139. The CLint scaled at 2 µM [22] was 11 mL/min/kg, the Kp uu at 24 h [23] was 0.92 and the half-life [24] was 7.2 h. It also gave a fraction unbound at 5 h [25] of 0.039.
